Results reported in the NIST ThermoML archive (doi:10.1021/je020042y).
± gives the expanded uncertainty stated by the source.

Experiment: molar heat capacity at saturation pressure
Settings: Liquid

## Cc1ccccc1 [toluene]
283.15 K
  molar heat capacity: 152.85 ± 1.2 J/K/mol
293.15 K
  molar heat capacity: 155.56 ± 1.2 J/K/mol
303.15 K
  molar heat capacity: 158.38 ± 1.2 J/K/mol
313.15 K
  molar heat capacity: 161.47 ± 1.2 J/K/mol
323.15 K
  molar heat capacity: 164.51 ± 1.3 J/K/mol
333.15 K
  molar heat capacity: 167.63 ± 1.3 J/K/mol
343.15 K
  molar heat capacity: 170.85 ± 1.3 J/K/mol

## ClCCCCCCCl [1,6-dichlorohexane]
284.16 K
  molar heat capacity: 236.57 ± 1.8 J/K/mol
286.66 K
  molar heat capacity: 237.13 ± 1.8 J/K/mol
289.15 K
  molar heat capacity: 237.89 ± 1.8 J/K/mol
291.66 K
  molar heat capacity: 238.51 ± 1.9 J/K/mol
294.15 K
  molar heat capacity: 239.26 ± 1.9 J/K/mol
296.65 K
  molar heat capacity: 239.89 ± 1.9 J/K/mol
298.15 K
  molar heat capacity: 240.39 ± 1.9 J/K/mol
299.16 K
  molar heat capacity: 240.68 ± 1.9 J/K/mol
301.65 K
  molar heat capacity: 241.35 ± 1.9 J/K/mol
304.16 K
  molar heat capacity: 242 ± 1.9 J/K/mol
308.56 K
  molar heat capacity: 243 ± 1.9 J/K/mol
309.15 K
  molar heat capacity: 243.48 ± 1.9 J/K/mol
311.66 K
  molar heat capacity: 244.27 ± 1.9 J/K/mol
314.15 K
  molar heat capacity: 245.06 ± 1.9 J/K/mol
316.65 K
  molar heat capacity: 245.79 ± 1.9 J/K/mol
319.16 K
  molar heat capacity: 246.57 ± 1.9 J/K/mol
321.65 K
  molar heat capacity: 247.24 ± 1.9 J/K/mol
324.16 K
  molar heat capacity: 247.78 ± 1.9 J/K/mol
326.65 K
  molar heat capacity: 248.95 ± 1.9 J/K/mol
329.15 K
  molar heat capacity: 249.58 ± 1.9 J/K/mol
331.66 K
  molar heat capacity: 250.36 ± 1.9 J/K/mol
334.15 K
  molar heat capacity: 251.24 ± 1.9 J/K/mol
336.66 K
  molar heat capacity: 252 ± 1.9 J/K/mol
339.16 K
  molar heat capacity: 252.72 ± 2 J/K/mol
341.65 K
  molar heat capacity: 253.7 ± 2 J/K/mol
344.16 K
  molar heat capacity: 254.49 ± 2 J/K/mol
346.65 K
  molar heat capacity: 255.12 ± 2 J/K/mol
349.15 K
  molar heat capacity: 255.75 ± 2 J/K/mol
351.66 K
  molar heat capacity: 257 ± 2 J/K/mol
353.14 K
  molar heat capacity: 257.47 ± 2 J/K/mol

## ClCCCl [1,2-dichloroethane]
284.16 K
  molar heat capacity: 128.02 ± 0.99 J/K/mol
286.66 K
  molar heat capacity: 128.21 ± 0.99 J/K/mol
289.15 K
  molar heat capacity: 128.39 ± 0.99 J/K/mol
291.66 K
  molar heat capacity: 128.58 ± 1 J/K/mol
294.15 K
  molar heat capacity: 128.75 ± 1 J/K/mol
296.65 K
  molar heat capacity: 128.94 ± 1 J/K/mol
298.15 K
  molar heat capacity: 129.06 ± 1 J/K/mol
299.16 K
  molar heat capacity: 129.11 ± 1 J/K/mol
301.65 K
  molar heat capacity: 129.39 ± 1 J/K/mol
304.16 K
  molar heat capacity: 129.47 ± 1 J/K/mol
308.56 K
  molar heat capacity: 129.86 ± 1 J/K/mol
309.15 K
  molar heat capacity: 129.86 ± 1 J/K/mol
311.66 K
  molar heat capacity: 130.16 ± 1 J/K/mol
314.15 K
  molar heat capacity: 130.4 ± 1 J/K/mol
316.65 K
  molar heat capacity: 130.55 ± 1 J/K/mol
319.16 K
  molar heat capacity: 130.88 ± 1 J/K/mol
321.65 K
  molar heat capacity: 131.09 ± 1 J/K/mol
324.16 K
  molar heat capacity: 131.2 ± 1 J/K/mol
326.65 K
  molar heat capacity: 131.56 ± 1 J/K/mol
329.15 K
  molar heat capacity: 131.87 ± 1 J/K/mol
331.66 K
  molar heat capacity: 132.06 ± 1 J/K/mol
334.15 K
  molar heat capacity: 132.24 ± 1 J/K/mol
336.66 K
  molar heat capacity: 132.59 ± 1 J/K/mol
339.16 K
  molar heat capacity: 132.82 ± 1 J/K/mol
341.65 K
  molar heat capacity: 132.96 ± 1 J/K/mol
344.16 K
  molar heat capacity: 133.32 ± 1 J/K/mol
346.65 K
  molar heat capacity: 133.59 ± 1 J/K/mol
349.15 K
  molar heat capacity: 133.83 ± 1 J/K/mol
351.66 K
  molar heat capacity: 134.22 ± 1 J/K/mol
353.14 K
  molar heat capacity: 134.46 ± 1 J/K/mol

## CCCCO [butan-1-ol]
303.15 K
  molar heat capacity: 181.16 ± 1.4 J/K/mol
313.15 K
  molar heat capacity: 188.39 ± 1.5 J/K/mol
323.15 K
  molar heat capacity: 196.66 ± 1.5 J/K/mol
333.15 K
  molar heat capacity: 205.33 ± 1.6 J/K/mol
343.15 K
  molar heat capacity: 214.22 ± 1.7 J/K/mol

## ClCCCCCCl [1,5-dichloropentane]
284.16 K
  molar heat capacity: 209.5 ± 1.6 J/K/mol
286.66 K
  molar heat capacity: 210.04 ± 1.6 J/K/mol
289.15 K
  molar heat capacity: 210.65 ± 1.6 J/K/mol
291.66 K
  molar heat capacity: 211.2 ± 1.6 J/K/mol
294.15 K
  molar heat capacity: 211.7 ± 1.6 J/K/mol
296.65 K
  molar heat capacity: 212.19 ± 1.6 J/K/mol
298.15 K
  molar heat capacity: 212.63 ± 1.6 J/K/mol
299.16 K
  molar heat capacity: 212.96 ± 1.6 J/K/mol
301.65 K
  molar heat capacity: 213.55 ± 1.6 J/K/mol
304.16 K
  molar heat capacity: 214.12 ± 1.7 J/K/mol
308.56 K
  molar heat capacity: 215.36 ± 1.7 J/K/mol
309.15 K
  molar heat capacity: 215.26 ± 1.7 J/K/mol
311.66 K
  molar heat capacity: 215.96 ± 1.7 J/K/mol
314.15 K
  molar heat capacity: 216.61 ± 1.7 J/K/mol
316.65 K
  molar heat capacity: 217.17 ± 1.7 J/K/mol
319.16 K
  molar heat capacity: 217.92 ± 1.7 J/K/mol
321.65 K
  molar heat capacity: 218.56 ± 1.7 J/K/mol
324.16 K
  molar heat capacity: 219 ± 1.7 J/K/mol
326.65 K
  molar heat capacity: 219.91 ± 1.7 J/K/mol
329.15 K
  molar heat capacity: 220.61 ± 1.7 J/K/mol
331.66 K
  molar heat capacity: 221.16 ± 1.7 J/K/mol
334.15 K
  molar heat capacity: 221.76 ± 1.7 J/K/mol
336.66 K
  molar heat capacity: 222.43 ± 1.7 J/K/mol
339.16 K
  molar heat capacity: 223.1 ± 1.7 J/K/mol
341.65 K
  molar heat capacity: 223.58 ± 1.7 J/K/mol
344.16 K
  molar heat capacity: 224.7 ± 1.7 J/K/mol
346.65 K
  molar heat capacity: 225.01 ± 1.7 J/K/mol
349.15 K
  molar heat capacity: 225.75 ± 1.8 J/K/mol
351.66 K
  molar heat capacity: 226.41 ± 1.8 J/K/mol
353.14 K
  molar heat capacity: 227.13 ± 1.8 J/K/mol

## ClCCCCl [1,3-dichloropropane]
284.16 K
  molar heat capacity: 154.94 ± 1.2 J/K/mol
286.66 K
  molar heat capacity: 155.4 ± 1.2 J/K/mol
289.15 K
  molar heat capacity: 155.76 ± 1.2 J/K/mol
291.66 K
  molar heat capacity: 156.11 ± 1.2 J/K/mol
294.15 K
  molar heat capacity: 156.39 ± 1.2 J/K/mol
296.65 K
  molar heat capacity: 156.76 ± 1.2 J/K/mol
298.15 K
  molar heat capacity: 157.03 ± 1.2 J/K/mol
299.16 K
  molar heat capacity: 157.2 ± 1.2 J/K/mol
301.65 K
  molar heat capacity: 157.65 ± 1.2 J/K/mol
304.16 K
  molar heat capacity: 157.89 ± 1.2 J/K/mol
308.56 K
  molar heat capacity: 158.63 ± 1.2 J/K/mol
309.15 K
  molar heat capacity: 158.67 ± 1.2 J/K/mol
311.66 K
  molar heat capacity: 159.23 ± 1.2 J/K/mol
314.15 K
  molar heat capacity: 159.54 ± 1.2 J/K/mol
316.65 K
  molar heat capacity: 159.89 ± 1.2 J/K/mol
319.16 K
  molar heat capacity: 160.47 ± 1.2 J/K/mol
321.65 K
  molar heat capacity: 160.93 ± 1.2 J/K/mol
324.16 K
  molar heat capacity: 161.01 ± 1.2 J/K/mol
326.65 K
  molar heat capacity: 161.59 ± 1.2 J/K/mol
329.15 K
  molar heat capacity: 162.11 ± 1.3 J/K/mol
331.66 K
  molar heat capacity: 162.48 ± 1.3 J/K/mol
334.15 K
  molar heat capacity: 162.96 ± 1.3 J/K/mol
336.66 K
  molar heat capacity: 163.33 ± 1.3 J/K/mol
339.16 K
  molar heat capacity: 163.82 ± 1.3 J/K/mol
341.65 K
  molar heat capacity: 164.1 ± 1.3 J/K/mol
344.16 K
  molar heat capacity: 164.44 ± 1.3 J/K/mol
346.65 K
  molar heat capacity: 165.1 ± 1.3 J/K/mol
349.15 K
  molar heat capacity: 165.38 ± 1.3 J/K/mol
351.66 K
  molar heat capacity: 165.81 ± 1.3 J/K/mol
353.14 K
  molar heat capacity: 166.22 ± 1.3 J/K/mol

## O [water]
283.15 K
  molar heat capacity: 75.47 ± 0.58 J/K/mol
293.15 K
  molar heat capacity: 75.29 ± 0.58 J/K/mol
303.15 K
  molar heat capacity: 75.29 ± 0.58 J/K/mol
313.15 K
  molar heat capacity: 75.34 ± 0.58 J/K/mol
323.15 K
  molar heat capacity: 75.32 ± 0.58 J/K/mol
333.15 K
  molar heat capacity: 75.33 ± 0.58 J/K/mol
343.15 K
  molar heat capacity: 75.38 ± 0.58 J/K/mol

## ClCCCCCl [1,4-dichlorobutane]
284.16 K
  molar heat capacity: 181.25 ± 1.4 J/K/mol
286.66 K
  molar heat capacity: 181.71 ± 1.4 J/K/mol
289.15 K
  molar heat capacity: 182.15 ± 1.4 J/K/mol
291.66 K
  molar heat capacity: 182.62 ± 1.4 J/K/mol
294.15 K
  molar heat capacity: 182.99 ± 1.4 J/K/mol
296.65 K
  molar heat capacity: 183.49 ± 1.4 J/K/mol
298.15 K
  molar heat capacity: 183.76 ± 1.4 J/K/mol
299.16 K
  molar heat capacity: 183.89 ± 1.4 J/K/mol
301.65 K
  molar heat capacity: 184.47 ± 1.4 J/K/mol
304.16 K
  molar heat capacity: 184.8 ± 1.4 J/K/mol
308.56 K
  molar heat capacity: 185.71 ± 1.4 J/K/mol
309.15 K
  molar heat capacity: 185.83 ± 1.4 J/K/mol
311.66 K
  molar heat capacity: 186.41 ± 1.4 J/K/mol
314.15 K
  molar heat capacity: 186.88 ± 1.4 J/K/mol
316.65 K
  molar heat capacity: 187.38 ± 1.4 J/K/mol
319.16 K
  molar heat capacity: 187.89 ± 1.5 J/K/mol
321.65 K
  molar heat capacity: 188.52 ± 1.5 J/K/mol
324.16 K
  molar heat capacity: 188.85 ± 1.5 J/K/mol
326.65 K
  molar heat capacity: 189.48 ± 1.5 J/K/mol
329.15 K
  molar heat capacity: 190.01 ± 1.5 J/K/mol
331.66 K
  molar heat capacity: 190.54 ± 1.5 J/K/mol
334.15 K
  molar heat capacity: 190.99 ± 1.5 J/K/mol
336.66 K
  molar heat capacity: 191.48 ± 1.5 J/K/mol
339.16 K
  molar heat capacity: 192 ± 1.5 J/K/mol
341.65 K
  molar heat capacity: 192.36 ± 1.5 J/K/mol
344.16 K
  molar heat capacity: 193.05 ± 1.5 J/K/mol
346.65 K
  molar heat capacity: 193.63 ± 1.5 J/K/mol
349.15 K
  molar heat capacity: 194 ± 1.5 J/K/mol
351.66 K
  molar heat capacity: 194.7 ± 1.5 J/K/mol
353.14 K
  molar heat capacity: 195.12 ± 1.5 J/K/mol
